Non-standard residues stand in square brackets, D forms with d. Residues, ends and D or L forms follow the SMILES beside them.
System: Rat Growth Hormone
Assay: In vivo GH secretion in adult female Sprague-Dawley rats, single SC or IV injection, RIA
Conditions: for GH AUC 45 min / GH AUC 300 min / GH AUC 120 min: in ng·min/mL (unit assumed)
Method: In order to assess such use of the GHRH analogs, the following experiments were undertaken. More specially, the goal was to assess the pharmacodynamic and pharmacokinetic profiles and acute toxicity of GHRH analog #5 when administered once by subcutaneous or intravenous injection to female Sprague-Dawley rats followed by a 14-day observation period and the pharmacodynamic profile in a male Beagle dog when the GHRH analog was administered at escalating doses to the same dog by subcutaneous injection with at least 2-day washout period. The above GHRH analog is a variation of a synthetic acetate salt of an amidated synthetic 29-amino acid peptide that corresponds to the amino-terminal segment of the naturally-occurring human growth hormone—releasing hormone (GHRH) with four amino acid substitutions in positions 2, 10, 15, and 22.
Human GHRH analog #5 in 0.9% sodium chloride for injection USP was administered once either by intravenous (IV) or subcutaneous (SC) injection to female rats followed by a 14-day observation period, as shown in Table 2. Prior to administration, all dosing formulations were filtered using a 0.22 μm filter to ensure sterility. The actual amount of GHRH analog #5 administered was calculated and adjusted based on the animal's most recent body weight. Dosing started at approximately the same time each day, commencing at 9:00 am ±30 minutes.
For pharmacodynamic investigations, blood samples (approximately 1.3 ml) were collected from 2 animals per group per time point (maximum 3 time points/animal) via a jugular venipuncture at the following time points: […] All blood samples were collected into potassium EDTA tubes and centrifuged under refrigeration (2 to 8° C., 1500 g for 10 minutes).
Rat Growth Hormone Determination • Plasma GH was determined by Linco Diagnostic Services using their own kit. Linco's Rat Growth Hormone radioimmunoassay kit (RIA) (RGH-45HK) is intended for the quantitative determination of Rat Growth Hormone in serum, plasma, and tissue culture media. It is a completely homologous assay since the antibody was raised against recombinant Rat Growth Hormone and both the tracer and the standard are prepared with the same recombinant Rat Growth Hormone. The kit includes standards, antibody, tracer, quality controls, precipitating reagents and buffer necessary to complete a RIA. The assay was conducted under the following conditions: overnight; equilibrium incubation at room temperature; sample volume: 100 μl serum, plasma, or cell culture media. The label used was 125I-Rat Growth Hormone (20,000 CPM/tube).

## CC[C@H](C)[C@H](NC(=O)[C@H](C)NC(=O)[C@H](CC(=O)O)NC(=O)[C@@H](C)NC(=O)[C@@H](N)Cc1ccc(O)cc1)C(=O)N[C@@H](Cc1ccccc1)C(=O)N[C@H](C(=O)N[C@@H](CC(N)=O)C(=O)N[C@@H](CO)C(=O)N[C@H](Cc1ccc(O)cc1)C(=O)N[C@@H](CCCNC(=N)N)C(=O)N[C@@H](CCCCN)C(=O)N[C@H](C(=O)N[C@@H](CC(C)C)C(=O)N[C@H](C)C(=O)N[C@@H](CCC(N)=O)C(=O)N[C@@H](CC(C)C)C(=O)N[C@@H](CO)C(=O)N[C@@H](C)C(=O)N[C@@H](CCCNC(=N)N)C(=O)N[C@@H](CCCCN)C(=O)N[C@@H](CCCCN)C(=O)N[C@@H](CC(C)C)C(=O)N[C@@H](CCC(N)=O)C(=O)N[C@@H](CC(=O)O)C(=O)N[C@H](C(=O)N[C@@H](CCSC)C(=O)N[C@@H](CO)C(=O)N[C@@H](CCCNC(=N)N)C(N)=O)[C@@H](C)CC)C(C)C)[C@@H](C)O [GHRH analog #5, [D-Ala^2, D-Tyr^10, D-Ala^15, Lys^22] hGHRH(1-29)-NH2] (H-Y[dA]DAIFTNS[dY]RKVL[dA]QLSARKKLQDIMSR-NH2)
0.001 mg/kg BW IV, 4 min
  Plasma Rat Growth Hormone: 26.2 ng/mL
0.001 mg/kg BW IV, 10 min
  Plasma Rat Growth Hormone: 25.85 ng/mL
0.001 mg/kg BW IV, 15 min
  Plasma Rat Growth Hormone: 34.65 ng/mL
0.001 mg/kg BW IV, 45 min
  Plasma Rat Growth Hormone: 21.15 ng/mL
0.001 mg/kg BW IV, 300 min
  Plasma Rat Growth Hormone: 67.15 ng/mL
0.001 mg/kg BW IV
  GH AUC 45 min: 1197
  GH AUC 300 min: 12280
0.001 mg/kg BW IV, −120 min
  Plasma Rat Growth Hormone: 23.85 ng/mL
0.001 mg/kg BW SC, 15 min
  Plasma Rat Growth Hormone: 36.7 ng/mL
0.001 mg/kg BW SC, 30 min
  Plasma Rat Growth Hormone: 14.2 ng/mL
0.001 mg/kg BW SC, 60 min
  Plasma Rat Growth Hormone: 26.85 ng/mL
0.001 mg/kg BW SC, 120 min
  Plasma Rat Growth Hormone: 17.8 ng/mL
0.001 mg/kg BW SC, 300 min
  Plasma Rat Growth Hormone: 21.85 ng/mL
0.001 mg/kg BW SC
  GH AUC 120 min: 2914
  GH AUC 300 min: 6482
0.001 mg/kg BW SC, −120 min
  Plasma Rat Growth Hormone: 20.15 ng/mL
0.01 mg/kg BW SC, 15 min
  Plasma Rat Growth Hormone: 190.4 ng/mL
0.01 mg/kg BW SC, 30 min
  Plasma Rat Growth Hormone: 31.9 ng/mL
0.01 mg/kg BW SC, 60 min
  Plasma Rat Growth Hormone: 8.5 ng/mL
0.01 mg/kg BW SC, 120 min
  Plasma Rat Growth Hormone: 7.6 ng/mL
0.01 mg/kg BW SC, 300 min
  Plasma Rat Growth Hormone: 11.95 ng/mL
0.01 mg/kg BW SC
  GH AUC 120 min: 5153
  GH AUC 300 min: 6913
0.01 mg/kg BW SC, −120 min
  Plasma Rat Growth Hormone: 20.4 ng/mL
0.03 mg/kg BW IV, 4 min
  Plasma Rat Growth Hormone: 68.45 ng/mL
0.03 mg/kg BW IV, 10 min
  Plasma Rat Growth Hormone: 254.65 ng/mL
0.03 mg/kg BW IV, 15 min
  Plasma Rat Growth Hormone: 75.1 ng/mL
0.03 mg/kg BW IV, 45 min
  Plasma Rat Growth Hormone: 33.4 ng/mL
0.03 mg/kg BW IV, 300 min
  Plasma Rat Growth Hormone: 38.75 ng/mL
0.03 mg/kg BW IV
  GH AUC 45 min: 3407
  GH AUC 300 min: 12060
0.03 mg/kg BW IV, −120 min
  Plasma Rat Growth Hormone: 43.15 ng/mL
0.03 mg/kg BW SC, 15 min
  Plasma Rat Growth Hormone: 240.9 ng/mL
0.03 mg/kg BW SC, 30 min
  Plasma Rat Growth Hormone: 39.05 ng/mL
0.03 mg/kg BW SC, 60 min
  Plasma Rat Growth Hormone: 9.5 ng/mL
0.03 mg/kg BW SC, 120 min
  Plasma Rat Growth Hormone: 4.6 ng/mL
0.03 mg/kg BW SC, 300 min
  Plasma Rat Growth Hormone: 11.25 ng/mL
0.03 mg/kg BW SC
  GH AUC 120 min: 6192
  GH AUC 300 min: 7618
0.03 mg/kg BW SC, −120 min
  Plasma Rat Growth Hormone: 36.1 ng/mL
0.1 mg/kg BW SC, 15 min
  Plasma Rat Growth Hormone: 252.4 ng/mL
0.1 mg/kg BW SC, 30 min
  Plasma Rat Growth Hormone: 43.8 ng/mL
0.1 mg/kg BW SC, 60 min
  Plasma Rat Growth Hormone: 7.65 ng/mL
0.1 mg/kg BW SC, 120 min
  Plasma Rat Growth Hormone: 4.45 ng/mL
0.1 mg/kg BW SC, 300 min
  Plasma Rat Growth Hormone: 18.7 ng/mL
0.1 mg/kg BW SC
  GH AUC 120 min: 6423
  GH AUC 300 min: 8507
0.1 mg/kg BW SC, −120 min
  Plasma Rat Growth Hormone: 20.4 ng/mL
0.3 mg/kg BW SC, 15 min
  Plasma Rat Growth Hormone: 247.9 ng/mL
0.3 mg/kg BW SC, 30 min
  Plasma Rat Growth Hormone: 133.5 ng/mL
0.3 mg/kg BW SC, 60 min
  Plasma Rat Growth Hormone: 16.75 ng/mL
0.3 mg/kg BW SC, 120 min
  Plasma Rat Growth Hormone: 4.00 ng/mL
0.3 mg/kg BW SC, 300 min
  Plasma Rat Growth Hormone: 21.8 ng/mL
0.3 mg/kg BW SC
  GH AUC 120 min: 8636
  GH AUC 300 min: 10958
0.3 mg/kg BW SC, −120 min
  Plasma Rat Growth Hormone: 20.7 ng/mL
1.00 mg/kg BW SC, 15 min
  Plasma Rat Growth Hormone: 270.0 ng/mL
1.00 mg/kg BW SC, 30 min
  Plasma Rat Growth Hormone: 155.85 ng/mL
1.00 mg/kg BW SC, 60 min
  Plasma Rat Growth Hormone: 24.35 ng/mL
1.00 mg/kg BW SC, 120 min
  Plasma Rat Growth Hormone: 15.85 ng/mL
1.00 mg/kg BW SC, 300 min
  Plasma Rat Growth Hormone: 28.85 ng/mL
1.0 mg/kg BW SC
  GH AUC 120 min: 10425
  GH AUC 300 min: 14448
1.00 mg/kg BW SC, −120 min
  Plasma Rat Growth Hormone: 88.95 ng/mL
3.0 mg/kg BW IV, 4 min
  Plasma Rat Growth Hormone: 38.7 ng/mL
3.0 mg/kg BW IV, 10 min
  Plasma Rat Growth Hormone: 36.95 ng/mL
3.0 mg/kg BW IV, 15 min
  Plasma Rat Growth Hormone: 83.65 ng/mL
3.0 mg/kg BW IV, 45 min
  Plasma Rat Growth Hormone: 41.6 ng/mL
3.0 mg/kg BW IV, 300 min
  Plasma Rat Growth Hormone: 56.7 ng/mL
3.0 mg/kg BW IV
  GH AUC 45 min: 2384
  GH AUC 300 min: 14299
3.0 mg/kg BW IV, −120 min
  Plasma Rat Growth Hormone: 48.6 ng/mL
3.00 mg/kg BW SC, 15 min
  Plasma Rat Growth Hormone: 453.0 ng/mL
3.00 mg/kg BW SC, 30 min
  Plasma Rat Growth Hormone: 181.55 ng/mL
3.00 mg/kg BW SC, 60 min
  Plasma Rat Growth Hormone: 59.4 ng/mL
3.00 mg/kg BW SC, 120 min
  Plasma Rat Growth Hormone: 4.45 ng/mL
3.00 mg/kg BW SC, 300 min
  Plasma Rat Growth Hormone: 47.9 ng/mL
3.0 mg/kg BW SC
  GH AUC 120 min: 15562
  GH AUC 300 min: 20273
3.00 mg/kg BW SC, −120 min
  Plasma Rat Growth Hormone: 20.05 ng/mL
rat
  GH secretion compared with natural hGHRH(1-44)NH2 (pulse amplitude and AUC): twice larger
Rat and dog
  In vivo potency compared with the natural 44 amino acid GHRH: at least two times more potent in vivo
rat, highest single IV dose
  Somatotroph desensitization: induced transient somatotroph desensitization
rat, intravenous and subcutaneous
  GH secretion into peripheral blood, dose dependence: dose-dependent response
rat, intravenous injection
  Time of peak GH secretion: 4 to 10 min
rat, single subcutaneous injection
  Time of peak GH secretion: 10 to 15 min

Reference: patent US20090088380A1, “GHRH ANALOGS AND THERAPEUTIC USES THEREOF” (priority 2007, published 2009)
